Reference: article PMC11346426, “1-Deoxy-D-xylulose 5-phosphate reductoisomerase as target for anti Toxoplasma gondii agents: crystal structure, biochemical characterization and biological evaluation of inhibitors” (Biochemical Journal, 2024)
Read-outs that look alike come from different tables or passages of the source.

Experiments:
human fibroblasts Hs27 = assay: MTT cytotoxicity assay on host cells; assay type: cell-based; conditions: concentration range 0.19–200 µM
[1] = MTT cytotoxicity assay on host cells; assay type: cell-based; conditions: human, Hs27 fibroblasts, 24 h incubation
Method: The method based on the reduction of the tetrazolium dye MTT [3-(4,5-dimethylthiazole-2-yl)-2,5-diphenyltetrazolium bromide] to its purple insoluble formazan by mitochondrial NAD(P)H-dependent cellular oxidoreductase enzymes in living cells, previously described by Mosmann was employed to assess the cytotoxic effects of the examined DXR inhibitors on the host cells, as previously described [[78–80]]. Briefly, Hs27 cells were cultured in 96-well plates at a concentration of 5 × 10^4/well in (IMDM, Gibco–Thermo Fisher Scientific, Waltham, MA, U.S.A., #12440053) with a volume of 100 µl per well and incubated at 37°C overnight. Then, eleven two-fold serially diluted concentrations of the investigated compounds ranging from […] were prepared and added to each well. Hs27 cells were then incubated for 24 h in humidified atmosphere of 5% CO2 in air. Controls included wells containing medium alone without cells (blank), untreated Hs27 cells, DMSO (negative control) and staurosporine (0.031, 0.062, 0.125, 0.25, 0.5, 1 µM) (Merck, Darmstadt, Germany, #S4400) as apoptosis inducer. After incubation, the culture media was replaced with 100 µl of DMEM medium without phenol (Gibco-Thermo Fisher Scientific, Waltham, MA, U.S.A., #21041025) plus 10% heat-inactivated (FBS Standard, South America origin, FBS, 2 µm sterile filtered, PAN-Biotech, Aidenbach, Germany, #P30-3306), and […] 2-mercaptoethanol (Gibco-Thermo Fisher Scientific, Waltham, MA, U.S.A., #21985023). Thereafter, the MTT reagent was added to each well and analysis conducted following the manufacture instructions (CyQuant MTT Cell Viability Assay Kit, Thermo Fisher Scientific, Waltham, MA, U.S.A., #V-13154). The absorbance was measured at 570 nm on an ELISA microplate reer (TECAN Sunrise, Männedorf, Switzerland) and the percentage of viability was calculated when compared with the untreated control. The data set was subsequently adjusted by applying blank correction. Cell viability values expressed as percentage of the negative control value were calculated as follows: %Cellviability=meanabsorbanceoftreatedwells−blank/meanabsorbanceofnegativecontrol−blank×100. The cytotoxicity of each compound was expressed as half maximal cytotoxic concentration (CC50 values) against Hs27 cells. These values were calculated by a non-linear regression using GraphPad PRISM™ statistics software package (Version 9.5.1; San Diego, CA, U.S.A.) plotting the percentage viability against the log of compound concentrations.

[2] = system: T. gondii ME49 tachyzoites; assay: T. gondii in vitro growth assay ([3H]-uracil incorporation); assay type: cell-based, Toxoplasma gondii; conditions: for activity against T. gondii growth (in words): T. gondii type II ME49 strain, [3H]-uracil incorporation; for IC50: Toxoplasma gondii, T. gondii type II ME49 strain in Hs27 host cells, n = 6
Method: With the aim to assess the inhibitory in vitro effect on parasite growth, T. gondii growth assays were performed as described previously [[78-80]]. Compounds, previously diluted in culture media in appropriate stock solutions, were added to confluent monolayers of Hs27 cells in 96-flat well plates at various concentrations. Then, freshly harvested tachyzoites were added to the cultures at a multiplicity of infection of 1:1 (parasite/host cell ratio). As controls, untreated and uninfected Hs27 cells, 24 h pre-stimulated and T. gondii infected cells with human interferon γ (IFN γ) (300 U/ml) (Merck, Darmstadt, Germany, #I17001) and T. gondii infected cells only were employed. After 48 h incubation, proliferating toxoplasmas were labelled with 0.3 μCi/well of tritiated uracil (^3H-U; 5 mCi, Hartmann Analytic, Braunschweig, Germany, #ART1782). After 28-30 h of incubation, plates were frozen at -20°C overnight. Cells were then thawed and harvested (Basic96 Harvester; Zinsser Analytic, Skatron Instruments, Northridge, CA, U.S.A.), purified with glass fibre filters (Printed Filtermat A 102 mm × 258 mm; PerkinElmer, Waltham, MA, U.S.A.) and dried at 130°C for 15-20 min. Dried filters were then wrapped into transparent plastic covers, dunked with 10 ml scintillation cocktail (Betaplate Scint; PerkinElmer, Waltham, MA, U.S.A., #1205-440), sealed and then loaded into metal cassettes and the incorporation of ^3H-uracil into the RNA of proliferating toxoplasmas was measured using a β-counter, a liquid scintillation counter that measure the […] (Betaplate Liquid Scintillation Counter 1205; LKB-[…], Melbourne, Australia). All data sets were normalized to 100% of the positive control. The dose-response curves of the compounds were fitted by means of the statistics software GraphPad PRISMTM (Version 9.5.1; San Diego, CA, U.S.A.). The minimal concentrations of compounds required for 50% inhibition of the parasite (IC50 values) were determined by non-linear regression analysis. Pyrimethamine was used as reference anti-toxoplasma compound.

TgDXR [3] = biological target: T1, TgDXR (Toxoplasma gondii, UniProt S8ESX0); assay: T. gondii DXR enzyme inhibition assay (NADPH oxidation, absorption at 340 nm); assay type: biochemical; conditions: for Ki: Ki = IC50/(1 + [S]/Km), [S] = 100 µM DXP, Km = 30.58 µM
Method: The enzymatic assays were conducted at 30°C in 96 well plates using a total reaction volume of 150 µl containing 100 nM of purified TgDXR protein in dimeric state, 100 µM of NADPH and 4 mM of MgCl2 as cofactors, 100 µM of DXP as substrate in 50 mM HEPES buffer (pH 7.5) containing 50 µg/ml of BSA. For the screening, DXR inhibitors were tested for their inhibitory activity and their IC50 measurements at concentrations ranging from 100 µM to 3.05 nM, in dilution steps 1:2.
To optimize and to ensure the interaction of NADPH and its enzyme binding pocket, the assay solution was incubated for 10 min at 37°C. Then, the reaction was commenced with the addition of 100 µM of DXP to the complete assay mixture. The reaction was monitored by measuring the absorption at 340 nm every minute for 1 h using a microplate reader (Tecan® 200 Pro, Tecan Group, Männedorf, Switzerland). The initial velocity of the reactions were calculated, the values were then used in the software GraphPad PRISM™ (Version 9.5.1; San Diego, CA, U.S.A.) for determinations of the IC50 values.

TgDXR [4] = biological target: T1, TgDXR; assay: TgDXR enzyme kinetic characterization (Michaelis-Menten); assay type: biochemical; conditions: 100 nM TgDXR, substrate or cofactor varied 7.8 to 500 µM; n = 8
Method: (§1) To biochemically characterize the catalytic ability of the truncated TgDXR for the conversion of DXP into MEP in the presence of the cofactors Mg^2+ and NADPH, and to determine the optimum conditions for maximum enzyme activity, the enzymatic assays were monitored at 340 nm (maximal absorbance of NADPH) in different conditions.
(§2) The enzymatic activity was evaluated in fixed conditions, using 50 mM HEPES buffer containing 50 µg/ml of bovine serum albumin (BSA) containing 100 nM of purified TgDXR protein in dimeric state. In each experimental evaluation, only one parameter was varied: either the substrate (DXP) concentration (ranging from 7.8 to 500 µM), or the cofactor NADPH (ranging from 7.8 to 500 µM), or Mg^2+ concentration (ranging from 1 to 6 mM) or the pH (ranging from 5.5 to 9) (Figure 3).
(§3) For the determination of the kinetic parameters, various concentration of the substrate DXP or NADPH were employed for the determination of the apparent Km (substrate concentration that yield a half-maximal velocity) and Vmax (maximum velocity) for the enzyme. These parameters were calculated by a non-linear regression with the software GraphPad PRISM™ (Version 9.5.1; San Diego, CA, U.S.A.) plotting the initial velocity of the reactions and using the Michaelis–Menten model (Figure 3).

[5] = substrate: CC(=O)[C@@H](O)[C@H](O)COP(=O)(O)O; assay: as above; assay type: biochemical, Toxoplasma gondii; conditions: other: 100 nM TgDXR, substrate or cofactor varied 7.8 to 500 µM; n = 8
Method: as §1, §2, §3

[6] = 100 nM truncated His10-TgDXR, 100 µM NADPH, 4 mM MgCl2, 100 µM DXP, pH 7.5, 30°C, n = 6, read-out: IC50 ± S.D.

O=CN(O)CCCP(=O)(O)O [Compound 1, Fosmidomycin, reference compound]
host cell cytotoxicity (in words) (human fibroblasts Hs27): did not show any detectable host cytotoxicity | CC50 at 24 h [1]: > 200 µM | activity against T. gondii growth (in words) [2]: no activity | IC50 [2]: > 200 µM | IC50 (TgDXR [3]): 1.03 ± 0.21 µM

CN(O)C(=O)CSC(c1ccccc1)P(=O)(O)O (stereo not drawn) [Compound 2, (((2-(hydroxy(methyl)amino)-2-oxoethyl)thio)(phenyl)methyl)phosphonic acid]
CC50 at 24 h [1]: > 200 µM | IC50 [2]: > 100 µM | IC50 (TgDXR [3]; [6]): 1.23 ± 0.12 µM | Ki (TgDXR [3]): 0.37 µM

CN(O)C(=O)CSC(c1ccc(F)c(F)c1)P(=O)(O)O (stereo not drawn) [Compound 3, ((3,4-difluorophenyl)((2-(hydroxy(methyl)amino)-2-oxoethyl)thio)methyl)phosphonic acid]
CC50 at 24 h [1]: > 200 µM | activity against T. gondii growth (in words) [2]: demonstrated activity | IC50 [2]: 14.4 ± 1.94 µM | IC50 (TgDXR [3]; [6]): 0.64 ± 0.38 µM | Ki (TgDXR [3]): 0.19 µM

CN(O)C(=O)CSC(c1ccc(Cl)c(Cl)c1)P(=O)(O)O (stereo not drawn) [Compound 4, ((3,4-dichlorophenyl)((2-(hydroxy(methyl)amino)-2-oxoethyl)thio)methyl)phosphonic acid]
CC50 at 24 h [1]: > 200 µM | activity against T. gondii growth (in words) [2]: demonstrated activity | IC50 [2]: 5.46 ± 1.22 µM | IC50 (TgDXR [3]; [6]): 0.62 ± 0.12 µM | Ki (TgDXR [3]): 0.19 µM

CN(O)C(=O)CSC(c1cc(F)cc(F)c1)P(=O)(O)O (stereo not drawn) [Compound 5, ((3,5-difluorophenyl)((2-(hydroxy(methyl)amino)-2-oxoethyl)thio)methyl)phosphonic acid]
CC50 at 24 h [1]: > 200 µM | activity against T. gondii growth (in words) [2]: demonstrated activity | IC50 [2]: 56 ± 6.11 µM | IC50 (TgDXR [3]; [6]): 2.45 ± 0.54 µM | Ki (TgDXR [3]): 0.74 µM

COc1cc(OC)cc(C(SCC(=O)N(C)O)P(=O)(O)O)c1 (stereo not drawn) [Compound 6, ((3,5-dimethoxyphenyl)((2-(hydroxy(methyl)amino)-2-oxoethyl)thio)methyl)phosphonic acid]
CC50 at 24 h [1]: > 200 µM | activity against T. gondii growth (in words) [2]: demonstrated activity | IC50 [2]: 12.5 ± 5.56 µM | IC50 (TgDXR [3]; [6]): 3.9 ± 1.06 µM | Ki (TgDXR [3]): 1.18 µM

CN(O)C(=O)COC(c1ccccc1)P(=O)(O)O (stereo not drawn) [Compound 7, ((2-(hydroxy(methyl)amino)-2-oxoethoxy)(phenyl)methyl)phosphonic acid]
CC50 at 24 h [1]: > 200 µM | activity against T. gondii growth (in words) [2]: demonstrated activity | IC50 [2]: 48.2 ± 8.56 µM | IC50 (TgDXR [3]; [6]): 5.82 ± 1.52 µM

CN(O)C(=O)COC(c1ccc(F)c(F)c1)P(=O)(O)O (stereo not drawn) [Compound 8, ((3,4-difluorophenyl)(2-(hydroxy(methyl)amino)-2-oxoethoxy)methyl)phosphonic acid]
CC50 at 24 h [1]: > 200 µM | IC50 [2]: > 100 µM | IC50 (TgDXR [3]; [6]): 52.14 ± 0.34 µM

CN(O)C(=O)COC(c1ccc(Cl)c(Cl)c1)P(=O)(O)O (stereo not drawn) [Compound 9, ((3,4-dichlorophenyl)(2-(hydroxy(methyl)amino)-2-oxoethoxy)methyl)phosphonic acid]
CC50 at 24 h [1]: > 200 µM | IC50 [2]: > 100 µM | IC50 (TgDXR [3]; [6]): 2.44 ± 0.43 µM | Ki (TgDXR [3]): 0.74 µM

Cc1ccc(C(OCC(=O)N(C)O)P(=O)(O)O)cc1 (stereo not drawn) [Compound 10, ((2-(hydroxy(methyl)amino)-2-oxoethoxy)(p-tolyl)methyl)phosphonic acid]
CC50 at 24 h [1]: > 200 µM | IC50 [2]: > 100 µM | IC50 (TgDXR [3]; [6]): 7.68 ± 0.87 µM | Ki (TgDXR [3]): 2.51 µM

CCc1nc(N)nc(N)c1-c1ccc(Cl)cc1 [Pyrimethamine, pyrimethamine, reference compound]
CC50 at 24 h [1]: > 100 µM | IC50 [2]: 0.22 ± 0.05 µM

NADPH
Km (TgDXR [4]): 51.3 ± 11.8 µM

B1: TgDXR (Toxoplasma gondii ME49) (protein)
chain: PSTRVKRLVVLGSTGSIGKSTLEIAREFPDIFQIVGLAAGGSNLALLAEQVAAFRPQYVYLGDSSKVAELQERLNDHERSAAFPRPRLLLGDEGLAELACVPNYDILVSAIVGFKGVLPTLKALEAGKDVALANKEALVAAGPVFRCLLSTRGLLYGDQERQDRHERSHRSGDQEGDREEDTDGDRREECDKRRAKAGQKCGLLLPVDSEHSAIFQALQGVPASCYPPRKLLLTASGGPFRGRTRDELEQVTLESALKHPKWSMGAKITIDSATLMNKGLEVIEAHFAFGCPYSSIEVLVHPQAVIHSAVELRDGATLAQLGLPDMKLPIAYALTWPHRLAAPWSAGVDLTREGNLTFEKPDLNTFGCLGLAYEAGERGGVAPACLNAANEVAVERFRNKEIGFVDIEDTVRHVMALQERERDNFSDVSLQDVFDADHWARTAARAFKPRK
Km [5]: 30.58 ± 6.33 µM
